Data reported in the CheMixHub ionic liquid set.

Assay: xn = mol fraction of the nth substance listed

F[B-](F)(F)F.[Li+] + CC[n+]1ccn(C)c1.O=S(=O)([O-])C(F)(F)F
electrical conductivity [S/m], 101 kPa
Conditions	x1 = 0.007746	x1 = 0.01537	x2 = 0.9648	x2 = 0.9746
288.15 K	0.628	0.59	–	0.537
298.15 K	0.908	0.855	0.796	0.797
333.15 K	2.25	2.19	2.06	2.07

COCCOCCO + CCCC[n+]1ccn(C)c1.F[B-](F)(F)F
100 kPa
Conditions	viscosity [mPa·s]
283.15 K, x2 = 0.05366	7.07
283.15 K, x2 = 0.09486	8.3
283.15 K, x2 = 0.1969	12.44
283.15 K, x2 = 0.2893	17.54
283.15 K, x2 = 0.3913	25.12
283.15 K, x2 = 0.4909	35.39
283.15 K, x2 = 0.5826	48.46
283.15 K, x2 = 0.6949	71.9
283.15 K, x2 = 0.7838	100
283.15 K, x2 = 0.8792	145
283.15 K, x2 = 0.9489	192.9
293.15 K, x2 = 0.04883	4.923
293.15 K, x2 = 0.09356	5.88
293.15 K, x2 = 0.192	8.36
293.15 K, x2 = 0.292	11.92
293.15 K, x2 = 0.3812	15.94
293.15 K, x2 = 0.4892	22.53
293.15 K, x2 = 0.5841	30.52
293.15 K, x2 = 0.6808	41.95
293.15 K, x2 = 0.7796	58.1
293.15 K, x2 = 0.8752	81.9
293.15 K, x2 = 0.9414	109.4
303.15 K, x2 = 0.05005	3.91
303.15 K, x2 = 0.1374	4.662
303.15 K, x2 = 0.2026	6.323
303.15 K, x2 = 0.2965	8.36
303.15 K, x2 = 0.3975	11.28
303.15 K, x2 = 0.491	15.38
303.15 K, x2 = 0.5868	20.14
303.15 K, x2 = 0.6897	27.27
303.15 K, x2 = 0.7826	36.34
303.15 K, x2 = 0.8807	50.95
303.15 K, x2 = 0.9393	63.1
313.15 K, x2 = 0.04527	2.966
313.15 K, x2 = 0.09794	3.523
313.15 K, x2 = 0.2017	4.838
313.15 K, x2 = 0.2869	6.194
313.15 K, x2 = 0.3858	8.06
313.15 K, x2 = 0.4987	10.87
313.15 K, x2 = 0.5953	13.94
313.15 K, x2 = 0.6918	18.09
313.15 K, x2 = 0.7818	23.11
313.15 K, x2 = 0.8804	29.78
313.15 K, x2 = 0.9409	34.99

COP(=O)([O-])OC.Cn1cc[n+](C)c1 + CCO
Conditions	viscosity [mPa·s]
293.15 K, 100 kPa, x1 = 0.1005	3.24
293.15 K, 100 kPa, x1 = 0.797	160.9
293.15 K, 101 kPa, x2 = 0.5028	37.73
293.15 K, 101 kPa, x2 = 0.6	24.37
293.15 K, 101 kPa, x2 = 0.7999	6.29
293.15 K, 101 kPa, x2 = 0.9	3.118
298.15 K, 100 kPa, x1 = 0.7009	84.1
298.15 K, 100 kPa, x1 = 0.8995	169.2
298.15 K, 101 kPa, x1 = 0.2011	5.8
298.15 K, 101 kPa, x1 = 0.5056	36.2
298.15 K, 101 kPa, x1 = 0.8017	132.7
298.15 K, 101 kPa, x2 = 0.4074	60.9
298.15 K, 101 kPa, x2 = 0.6	21.18
303.15 K, 100 kPa, x1 = 0.1005	2.62
303.15 K, 100 kPa, x1 = 0.2006	5.25
303.15 K, 100 kPa, x1 = 0.3005	9.92
303.15 K, 101 kPa, x2 = 0.0999	173.7
303.15 K, 101 kPa, x2 = 0.7999	5.01
308.15 K, 100 kPa, x1 = 0.8995	94.2
308.15 K, 100 kPa, x1 = 1	123.3
308.15 K, 101 kPa, x2 = 0.5028	21.92
308.15 K, 101 kPa, x2 = 0.6992	9.29
313.15 K, 100 kPa, x1 = 0.4031	12.72
313.15 K, 100 kPa, x1 = 0.797	54.3
313.15 K, 101 kPa, x1 = 0.2011	4.2
313.15 K, 101 kPa, x1 = 0.5056	21.2
313.15 K, 101 kPa, x1 = 0.8017	60.8
318.15 K, 100 kPa, x1 = 0.3005	7.04
318.15 K, 100 kPa, x1 = 0.7009	33.29
318.15 K, 100 kPa, x1 = 1	72.2
318.15 K, 101 kPa, x2 = 0	92.8
318.15 K, 101 kPa, x2 = 0.7999	3.702
323.15 K, 100 kPa, x1 = 0.3005	6.41
323.15 K, 100 kPa, x1 = 0.7009	27.5
323.15 K, 100 kPa, x1 = 0.797	35.24
323.15 K, 100 kPa, x1 = 0.8995	45.63
323.15 K, 101 kPa, x2 = 0.0999	63.7
323.15 K, 101 kPa, x2 = 0.9	1.819
328.15 K, 100 kPa, x1 = 0.4996	12.51
328.15 K, 100 kPa, x1 = 0.797	29.03
333.15 K, 100 kPa, x1 = 0.1005	1.36
333.15 K, 100 kPa, x1 = 0.3005	5.46
333.15 K, 100 kPa, x1 = 0.7009	19.59
333.15 K, 100 kPa, x1 = 0.8995	30.39
333.15 K, 101 kPa, x1 = 0.2011	2.9
333.15 K, 101 kPa, x1 = 0.5056	11.9
333.15 K, 101 kPa, x1 = 0.8017	28
338.15 K, 100 kPa, x1 = 0.4996	9.9

CC(C)[C@H](N)C(=O)O + CCCCCCCCCCCCCCCC[n+]1ccccc1.O=C([O-])c1ccccc1O + O
Conditions	electrical conductivity [S/m]
313.15 K, 101 kPa, x1 = 0.001799, x2 = 0	0.00161

O=C(O)C(F)(F)C(F)(F)C(F)(F)C(F)(F)F + CC[n+]1ccn(C)c1.[Cl-]
102 kPa
Conditions	viscosity [mPa·s]
293.15 K, x2 = 0.6636	295
303.15 K, x2 = 0.3346	24.2
313.15 K, x2 = 0.3346	17.41
318.15 K, x2 = 0.5026	31.7
323.15 K, x2 = 0.5026	26.6
333.15 K, x2 = 0.5026	19.35
333.15 K, x2 = 0.6636	39.1
338.15 K, x2 = 0.3346	8.91
338.15 K, x2 = 0.5026	16.68
348.15 K, x2 = 0.5026	12.76
353.15 K, x2 = 0.3346	6.42

CCC(=O)O.CCC(=O)[O-].CC[NH+](CC)CCO + CCCC[n+]1ccn(C)c1.COP(=O)([O-])OC
101 kPa
Conditions	viscosity [mPa·s]
278.15 K, x1 = 0.08	1956
283.15 K, x1 = 0.2364	446
283.15 K, x1 = 0.4953	205.6
283.15 K, x1 = 0.6252	170.9
283.15 K, x1 = 0.7416	147.7
288.15 K, x1 = 0.6252	123.8
293.15 K, x1 = 0.3281	154
293.15 K, x1 = 0.8667	70.8
298.15 K, x1 = 0.7416	60.3
298.15 K, x1 = 1	66.2
303.15 K, x1 = 0.08	280.9
303.15 K, x1 = 0.2364	123.4
303.15 K, x1 = 0.4183	70.2
303.15 K, x1 = 0.8667	41.6
308.15 K, x1 = 0.4183	54.9
308.15 K, x1 = 0.8667	32.8
313.15 K, x1 = 0.3281	53.8
313.15 K, x1 = 0.4953	39.2
318.15 K, x1 = 0.6252	27.36
323.15 K, x1 = 0.2364	47.3
323.15 K, x1 = 0.4953	25.98
328.15 K, x1 = 0.2364	38.66
328.15 K, x1 = 0.7416	16.29
328.15 K, x1 = 0.8667	14.65
333.15 K, x1 = 0.4953	18.11
333.15 K, x1 = 0.8667	12.33
333.15 K, x1 = 1	14.08
338.15 K, x1 = 0.08	48.11
338.15 K, x1 = 0.2364	26.76
338.15 K, x1 = 0.6252	13.4
338.15 K, x1 = 0.7416	11.64
343.15 K, x1 = 0.4953	13.09
348.15 K, x1 = 0.1549	25.27
348.15 K, x1 = 0.4183	12.61
348.15 K, x1 = 0.6252	9.95
348.15 K, x1 = 0.8667	7.75
353.15 K, x1 = 0.1549	21.56
353.15 K, x1 = 0.4183	10.98
358.15 K, x1 = 0.4183	9.63
358.15 K, x1 = 0.4953	8.59
358.15 K, x1 = 0.6252	7.61
363.15 K, x1 = 0.7416	5.82
363.15 K, x1 = 1	5.7
368.15 K, x1 = 0.08	17.66
368.15 K, x1 = 0.1549	14.09
368.15 K, x1 = 0.7416	5.16
373.15 K, x1 = 0.7416	4.6
373.15 K, x1 = 1	4.41

CCC[NH3+].O=[N+]([O-])[O-] + CCCC[NH3+].O=[N+]([O-])[O-]
101 kPa, frequency 0.00293 MHz, x1 = 0.5
Conditions	electrical conductivity [S/m]
293.15 K	0.496
313.15 K	1.02
323.15 K	1.36

101 kPa, x1 = 0.5
Conditions	viscosity [mPa·s]
293.15 K	100.4
313.15 K	45.4
323.15 K	32.6
328.15 K	28.1
343.15 K	18.8

CCCCCCCCCO + CCCC[n+]1ccn(C)c1.O=S(=O)([N-]S(=O)(=O)C(F)(F)F)C(F)(F)F
Conditions	viscosity [mPa·s]
298 K, 100 kPa, x2 = 0.9008	41.28

CCCCCC[n+]1ccn(C)c1.F[B-](F)(F)F + CC(C)(C)O
298.15 K, 101 kPa
Conditions	viscosity [mPa·s]
x2 = 0.3074	69.2
x2 = 0.8007	13.92

CC(C)=O + CC[n+]1ccn(C)c1C.F[B-](F)(F)F
101.3 kPa, x2 = 0
Conditions	viscosity [mPa·s]
293.15 K	0.325
298.15 K	0.303
303.15 K	0.297
308.15 K	0.283
313.15 K	0.269
318.15 K	0.251
323.15 K	0.244

CCC[NH3+].O=[N+]([O-])[O-] + CC[NH3+].O=[N+]([O-])[O-]
101 kPa, frequency 0.00293 MHz, x2 = 0.5
Conditions	electrical conductivity [S/m]
293.15 K	1.2
303.15 K	1.67
318.15 K	2.53

101 kPa, x2 = 0.5
Conditions	viscosity [mPa·s]
293.15 K	64.5
303.15 K	44.1
318.15 K	27.1
353.15 K	11.5

CCCCCC[n+]1ccn(C)c1.F[B-](F)(F)F + CN(CCO)CCO
101 kPa
Conditions	viscosity [mPa·s]
303.15 K, x2 = 0.3916	72.6
303.15 K, x2 = 0.4949	69.8
303.15 K, x2 = 0.7928	62.2
313.15 K, x2 = 0.5936	41.8
313.15 K, x2 = 0.8824	36.8
318.15 K, x2 = 0.4949	34.3

CCn1cc[n+](C)c1.C[C@H](O)C(=O)[O-] + O
298.15 K, 100 kPa
Conditions	viscosity [mPa·s]
x2 = 0.3138	32.5
x2 = 0.9696	1.82
